Assay results: article PMC3549755, “A comparison of the ability of rilpivirine (TMC278) and selected analogues to inhibit clinically relevant HIV-1 reverse transcriptase mutants” (Retrovirology, 2012)
Where two headings read alike, the source gives them in different places.

How the values were obtained:
[1] = test system: viral vector with Y188L mutant HIV-1 RT; test: single-round infectivity assay, luciferase reporter, Y188L RT vector; type: cell-based; conditions: Human immunodeficiency virus 1; HOS cells, reduction of luciferase reporter activity, SD in parentheses
Text: (§1) We examined the effects of rilpivirine and the analogues on HIV-1 replication using a previously described assay and report the concentrations at which luciferase reporter activity was reduced by half relative to uninhibited controls (EC50) with standard deviations in parentheses. In the assay, viral vectors that replicate using WT HIV reverse transcriptase or one of several mutants (L100I, K103N, V106A, E138K, Y181C, Y188L, H221Y and the double mutant K103N/Y181C) were used to infect cells in a single round assay. These mutants were chosen either because they are known NNRTI resistance mutations (L100I, K103N, Y181C, and the K103N/Y181C double mutant), they were selected in patients in rilpivirine clinical trials (E138K and H221Y), or they are positioned to make significant Van der Waals contacts with rilpivirine (V106A and Y188L). All compounds were initially screened against a panel that included at least one RT mutant from all three groups (WT, K103N, E138K, Y181C and Y188L). The cytotoxicity of the compounds was also determined to establish the therapeutic index of each of the compounds.
(§2) Procedures for virion production and cell-based assay have been reported. Briefly, all cell cultures were maintained in Dulbecco’s modified Eagle’s medium (Invitrogen, Carlsbad, CA) with 5% (v/v) fetal bovine serum, 5% newborn calf serum, penicillin (50 units/mL) and streptomycin (50 μg/mL) (Quality Biological, Gaithersburg, MD). […]. Transfected cells were incubated at 37°C for 8 hrs, washed twice with PBS, fresh media was added and the cells were returned to the incubator for 48 hrs. The pNLNgoMIVR^+ΔEnv.LUC plasmid encodes the HIV-1 genome with an Env deletion and either WT HIV-1 RT, or one of the following mutants: L100I, K103N, V106A, E138K, Y181C, Y188L, H221Y, or K103N/Y181C. Supernatants from each plate were clarified by low-speed centrifugation (3,000xg for 20 min), then treated with 200 U DNase I (Roche Applied Science, Mannheim, Germany) at room temperature for 3 hours. Viral supernatants were stored at −20°C until used.
(§3) One day prior to infection, 100 μL of human osteosarcoma (HOS) cells were added to each well of a 96-well plate at a density of 4x10^4 cells/mL. Plates were incubated overnight at 37°C. On the day of infection, 10X drug stocks were prepared by serial dilution in media from an initial 10 mM stock solution in DMSO. Cells in the 96-well plate were pre-treated by the addition of 22 μL of the appropriate drug stock and returned to the incubator for 3 hours. Thawed virus stocks were diluted 1:2 in media, then 100 μL of virus was added to the pre-treated cells, bringing the final drug concentrations to 0.1 nM to 100 nM, with DMSO-treated cells (no drug) serving as a reference. In addition, 12 wells of cells treated with media and no virus served as negative controls. Plates were returned to the incubator for an additional 42 hours, at which time the luciferase activity was determined using Steady-Lite Plus kits (PerkinElmer, Waltham, MA). Background luciferase activity, as measured for the negative controls, was subtracted from the activities measured for each infected well. Drug-free, DMSO-treated wells were normalized to 100% infectivity. Infectivity at each drug concentration was determined as a percentage of these drug-free infections. Drug concentration versus percent infectivity was plotted for each RT-inhibitor combination, and the data were fit to a four-parameter sigmoidal curve using KaleidaGraph 4.0 (Synergy Software, Reading, PA). The inflection point of each curve is reported as the IC50. All values are the mean of triplicate infections.

[2] = test system: viral vector with L100I mutant HIV-1 RT; test: single-round infectivity assay, luciferase reporter, L100I RT vector; type: cell-based; conditions: Human immunodeficiency virus 1; broader panel, SD in parentheses
Text: as §1, §2, §3

[3] = cytotoxicity assay (ATP-Lite cell viability); type: cell-based, human; conditions: human, HOS cells, 48 hours, SD in parentheses
Protocol: (§4) One day prior to treatment, HOS cells were prepared in 96-well plates as described for the infectivity assays, except that 12 wells per plate were treated with cell-free media to serve as negative controls. The following day, serial dilutions of drug stocks were prepared in media from 10 mM stocks in DMSO. Each well received 11 μL of the appropriate drug concentration or DMSO-treated, drug-free media. Final drug concentrations ranged from 0.5 μM to 300 μM. The drug-free wells served as references. Plates were then incubated at 37°C for 48 hours. Cell viability was determined using luciferase reporter ATP-Lite kits (PerkinElmer). As described for the infectivity assays, drug-free reference wells were normalized to 100%, and viabilities at different drug concentrations were determined as a percentage of these references. Data were plotted and analyzed in the same manner as the IC50 data, with the inflection points of the curves reported as CC50.

HOS cells = test: cytotoxicity assay (ATP-Lite cell viability); type: cell-based, human; conditions: for Therapeutic Index (T.I.): ratio of CC50/EC50 (WT); for CC50: HOS cells, 48 hours, SD in parentheses
Protocol: as §4

[4] = test system: viral vector with K103N/Y181C double mutant HIV-1 RT; test: single-round infectivity assay, luciferase reporter, K103N/Y181C RT vector; type: cell-based; conditions: for EC50: Human immunodeficiency virus 1, broader panel, SD in parentheses; for fold resistance / loss of potency against K103N/Y181C double mutant: relative to WT
Text: as §1, §2, §3

[5] = test system: viral vector with Y181C mutant HIV-1 RT; test: single-round infectivity assay, luciferase reporter, Y181C RT vector; type: cell-based; conditions: Human immunodeficiency virus 1; HOS cells, reduction of luciferase reporter activity, SD in parentheses
Text: as §1, §2, §3

[6] = test system: viral vector with K103N mutant HIV-1 RT; test: single-round infectivity assay, luciferase reporter, K103N RT vector; type: cell-based; conditions: Human immunodeficiency virus 1; HOS cells, reduction of luciferase reporter activity, SD in parentheses
Text: as §1, §2, §3

[7] = test system: viral vector with V106A mutant HIV-1 RT; test: single-round infectivity assay, luciferase reporter, V106A RT vector; type: cell-based; conditions: Human immunodeficiency virus 1; broader panel, SD in parentheses
Text: as §1, §2, §3

[8] = test system: viral vectors that replicate using WT HIV reverse transcriptase; test: single-round infectivity assay, luciferase reporter, vector with WT RT; type: cell-based, HIV-1; conditions: SD in parentheses
Text: as §1, §2, §3

[9] = test system: viral vector with E138K mutant HIV-1 RT; test: single-round infectivity assay, luciferase reporter, E138K RT vector; type: cell-based; conditions: for EC50: Human immunodeficiency virus 1, HOS cells, reduction of luciferase reporter activity, SD in parentheses; for loss of potency against E138K: compared with rilpivirine (1)
Text: as §1, §2, §3

[10] = test system: viral vector with H221Y mutant HIV-1 RT; test: single-round infectivity assay, luciferase reporter, H221Y RT vector; type: cell-based; conditions: Human immunodeficiency virus 1; broader panel, SD in parentheses
Text: as §1, §2, §3

[11] = Human immunodeficiency virus 1, broader panel table, read-out: EC50 WT (Table S1)

SMILES | EC50 [1] [nM] | EC50 [2] [nM] | CC50 at 48 h [3] [nM] | Therapeutic Index (T.I.) (HOS cells) | EC50 [4] [nM] | fold resistance / loss of potency against K103N/Y181C double mutant [4] | EC50 [5] [nM] | EC50 [6] [nM] | EC50 [7] [nM] | EC50 ([8]; HOS cells, reduction of luciferase reporter activity, read-out: EC50 WT) [nM] | EC50 ([8]; Human immunodeficiency virus 1, HOS, HOS cells, reduction of luciferase reporter activity, read-out: EC50 WT) [nM] | EC50 [9] [nM] | EC50 [10] [nM] | EC50 [8, 11] [nM] | CC50 (HOS cells) [nM] | loss of potency against E138K [9] | EC50 fold greater than that of 7 against K103N/Y181C [4]
Cc1cc(/C=C/C#N)cc(C)c1Nc1ccnc(Nc2ccc(C#N)cc2)n1 [Analogue 1, rilpivirine] | 2.3 ± 0.2 | < 0.1 | 10000 ± 600 | 2.5x10^4 | 3.1 | ~ 8 fold | 1.3 | 0.2 | 0.1 | 0.2 | 0.4 ± 0.02 | 0.3 | 0.4 | – | – | – | –
Cc1cc(/C=C/C#N)cc(C)c1Nc1nc(Nc2ccc(C#N)cc2)ncc1[N+](=O)[O-] [Analogue 6] | 6.8 ± 0.5 | < 0.1 | 24000 | 1.2x10^5 | 27 | – | 2.1 | 0.2 | 0.1 | – | – | 1.4 | 0.4 | 0.2 | – | – | –
Cc1cc(/C=C/C#N)cc(C)c1Nc1nc(Nc2ccc(C#N)cc2)ncc1N [Analogue 7] | 2.3 ± 0.1 | 0.1 | 50000 | 2.5x10^5 | 2.2 | – | 1.1 | 0.3 | 0.1 | – | – | 1.3 | 0.9 | 0.2 | > 38000 | four- to fourteen-fold | –
Cc1cc(/C=C/C#N)cc(C)c1Nc1ncc(N)c(Nc2ccc(C#N)cc2)n1 [Analogue 9] | 18 | 0.5 | 19000 | 2.7x10^4 | 47 | ~ 67 fold | 4.6 | 0.7 | 0.9 | – | – | 2.6 | 2.8 | 0.7 | – | – | ~ 21 fold
Cc1cc(/C=C/C#N)cc(C)c1Nc1nc(Nc2ccc(C#N)cc2)c2nc[nH]c2n1 [Analogue 13] | 2 | 0.1 | 15000 | 1.7x10^4 | 2.9 | – | 1.4 | 0.4 | 0.5 | – | – | 4.2 ± 0.3 | 1.3 | 0.9 | – | four- to fourteen-fold | –
Cc1cc(/C=C/C#N)cc(C)c1Nc1nc(Nc2ccc3ncsc3c2)c2nc[nH]c2n1 [Analogue 20] | 19 | 0.2 | 2000 | 1.0x10^4 | 60 | – | 1 | 0.1 | 2.1 | – | – | 0.8 | 1.1 | 0.2 | – | – | –
Cc1cc(/C=C/C#N)cc(C)c1Nc1nc(Nc2ccc3scnc3c2)c2nc[nH]c2n1 [Analogue 21] | 4.4 | 0.6 | 38000 | 3.8x10^5 | > 100 | > 1000 fold | 1 | 0.6 | 4.6 | – | – | 1.5 | 0.6 | 0.1 | > 38000 | – | –
Cc1cc(/C=C/C#N)cc(C)c1Nc1ncc2ncn(-c3ccc(C#N)cc3)c2n1 [Analogue 26] | 91 | 1.6 | 21000 | 4.7x10^3 | > 100 | – | 26 | 6.5 | 6.5 | – | – | 25 | 17 | 4.5 | – | – | –
Cc1cc(/C=C/C#N)cc(C)c1-n1cnc2cnc(Nc3ccc(C#N)cc3)nc21 [Analogue 27] | 9.6 ± 2.2 | 0.2 | 42000 | 2.1x10^5 | 72 | – | 1.5 | 0.4 | 0.2 | – | – | 0.7 | 0.4 | 0.2 | > 38000 | – | –
